{
  "source": "patent US20240002369A1",
  "about": "“NOVEL TREATMENTS OF ATTENTION DEFICIT/HYPERACTIVITY DISORDER” (priority 2020, published 2024)",
  "key": {"Lphn3.1 HOM larvae [1]": {"tested_on": "Lphn3.1 HOM larvae", "assay": "Motor assay in the zebrafish model of ADHD (Lphn3.1 knock-out larvae)", "type": "in vivo, zebrafish (Danio rerio)", "source_text": "Zebrafish larvae carrying a knock-out of the Latrophilin3 (Lphn3.1) gene were generated by CRISPR-Cas9. Zebrafish were kept in a 14:10 light: dark cycle in 3 or 10 L multi tank constant flow system (Aquatic Habitats, Apopka, FL, USA). For behavioral analysis a total number of 881, 6 days-post fertilization (dpf) embryos carrying a homozygous knock-out of the Lphn3.1 gene were used in the study. Adult zebrafish with a homozygous knock-out of the Lphn3.1 gene and adult zebrafish with a wild-type Lphn3.1 gene were fed three times a day on a variable diet of TetraMin flakes (Tetra Holding GmbH, Melle, Germany) and live Artemia. […]\nFollowing a 24 hour acclimation period, behavioral recordings were made. Locomotor activity was recorded between […] and 6.00 pm at 6 dpf during alternating light and dark conditions, presented in 30-minute intervals. For this period, average distance moved (mm) by the larvae was calculated as the mean of the total distance swum during five separate 30-minute intervals immediately after transition of light conditions. […]\nData was obtained using EthoVision XT (Version Nov. 5, 2016, Noldus) and exported to Microsoft Excel for analysis. […] For analysis of Lphn 3.1 larvae treated with moxonidine statistical differences were evaluated using one-way ANOVA with Dunnett two-sided post hoc analysis. […]"}, "Lphn3.1 WT larvae": {"tested_on": "Lphn3.1 WT larvae", "assay": "Motor assay in wild-type zebrafish larvae", "type": "in vivo, zebrafish (Danio rerio)"}, "[2]": {"tested_on": "scopolamine-induced cognitive dysfunction", "assay": "T-maze alternation test, scopolamine-induced cognitive dysfunction model", "type": "in vivo, Male CD-1 mice", "source_text": "Male CD-1 mice aged 4-5 weeks were allocated to a T-maze to perform the T-maze alternation test as described by Andriambeloson et al., 2014 (Pharma Res Per, 2 (4), 2014, e00048, included herein by reference). In brief, each mouse was placed in a T-maze consisting of a main stem and two arms. The experiment consisted of one “forced-choice” trial and 14 “free-choice” trials to evaluate the number of spontaneous alternations."}, "Lphn3.1 HOM larvae [3]": {"tested_on": "Lphn3.1 HOM larvae", "assay": "Sleep behavior in freely moving zebrafish larvae during lights-off period", "conditions": "for SleepDuration (sleep bout duration) Mean Difference (I − J): average length of sleep bouts; for WakeDuration (wake bout duration) Mean Difference (I − J): average length of wake bouts; for Velocity (during sleep) Mean Difference (I − J): average velocity throughout the night time; for SleepRatio Mean Difference (I − J): share of total night time asleep; for SleepFragmentation Mean Difference (I − J): transitions between sleep and wake bouts per hour, lights-off 22:00-08:00", "method": "This assay provides a measure of muscle weakness and/or motor coordination, which co-occurs with certain sleep states, but can also occur independently of sleep. […] Thus, to evaluate the effect of moxonidine on sleep behavior, the sleep behavior in freely moving zebrafish (Lphn3.1 HOM larvae) following treatment with moxonidine, a comparator compound, or negative control (i.e. saline or vehicle control) was assessed in line with the criteria described by Levitas-Djerbi et al., (Curr Opin Neurobiol. 2017; 44:89-93) and Sorribes et al., (Front Neural Circuits. 2013 Nov. 13; 7:178).\nIn brief, sleep behavior was recorded in a 96-well plate and analysed during the lights-off period (22:00-08:00). First, all behavior was dichotomized into 1-s bins of movement or non-movement. […] All activity that was slower than that threshold was computed as non-movement. Thus, rendering a dichotomized record of the behavior in either movement or non-movement. Next, the dichotomized record was transformed into bins of sleep and wake. Following previously established sleep criteria in adults, and adapted to larval fish (Yokogawa et al., PLoS Biol. 2007; 5(10):2379-97, Sorribes et al., Front Neural Circuits. 2013; 7:178, and Sigurgeirsson et al., Behav Brain Res. 2013; 256:377-90), six or more consecutive 1-s bins of non-movement were counted as sleep and all else was counted as wake. That is, the seventh second and above were classified as sleep; all other bouts were classified as wake. Once the number of sleep and wake bouts was calculated, five different sleep parameters were assessed (i.e. sleep fragmentation, sleep ratio, velocity during sleep, wake bout duration(s), and sleep bout duration(s)). Sleep fragmentation was defined as the number of transitions between sleep and wake bouts per hour. Sleep ratio was calculated as the percentage of total night time that the fish was considered asleep. Velocity during sleep (mm/s) was defined as the average velocity throughout the night time. Wake bout duration(s) was defined as the average length of wake bouts. Sleep bout duration(s) was defined as the average length of sleep bouts."}, "[4]": {"conditions": "Tan et al., Proc Natl Acad Sci USA 2002; cited from earlier work"}},
  "note": "Entries after “also recorded” stand apart in the source; their conditions may differ. Marks after values point to notes of the source that are not given here.",
  "data": [
    {"smiles": "COc1nc(C)nc(Cl)c1NC1=NCCN1", "note": "[Moxonidine, moxonidine]", "values": [
      {"measurement": "average distance moved over the five lights-on phases", "setting": "Lphn3.1 HOM larvae [1]; 1 μM, 10 μM or 30 μM vs vehicle control (DMSO), FIG. 3", "value": "differed significantly from vehicle control and untreated larvae; also recorded: Statistically significant differences"},
      {"measurement": "behavioral deficits (24 hour velocity spectrogram)", "setting": "Lphn3.1 HOM larvae [1]; 10 μM, Lphn3.1 HOM larvae, FIG. 5", "value": "rectifies the behavioral deficits"},
      {"measurement": "velocity in wild-type larvae", "setting": "Lphn3.1 WT larvae", "value": "increase velocity"},
      {"measurement": "behavioral parameters (24 hour velocity spectrogram)", "setting": "Lphn3.1 WT larvae; 10 μM, FIG. 5", "value": "no effect on behavioral parameters"},
      {"measurement": "spontaneous alternation, dose dependence", "setting": "[2]; 0.1 mg/kg, 0.3 mg/kg and 1 mg/kg, FIG. 4", "value": "dose-dependent increase in spontaneous alternation"},
      {"measurement": "spontaneous alternation", "setting": "[2]; 0.3 mg/kg vs mice exposed to scopolamine, p<0.001", "value": "significant increased spontaneous alternation"},
      {"measurement": "spontaneous alternation", "setting": "[2]; 1 mg/kg vs mice exposed to scopolamine, p<0.0001", "value": "significant increased spontaneous alternation"},
      {"measurement": "SleepDuration (sleep bout duration) Mean Difference (I − J)", "setting": "Lphn3.1 HOM larvae [3]; 1 uM vs HOM - DMSO", "value": -1.586, "unit": "s"},
      {"measurement": "WakeDuration (wake bout duration) Mean Difference (I − J)", "setting": "Lphn3.1 HOM larvae [3]; 1 uM vs HOM - DMSO", "value": 0.8031, "unit": "s"},
      {"measurement": "Velocity (during sleep) Mean Difference (I − J)", "setting": "Lphn3.1 HOM larvae [3]; 1 uM vs HOM - DMSO", "value": "−0.02492", "unit": "mm/s"},
      {"measurement": "SleepRatio Mean Difference (I − J)", "setting": "Lphn3.1 HOM larvae [3]; 1 uM vs HOM - DMSO", "value": "−0.04916"},
      {"measurement": "SleepFragmentation Mean Difference (I − J)", "setting": "Lphn3.1 HOM larvae [3]; 1 uM vs HOM - DMSO", "value": 3.2294},
      {"measurement": "SleepDuration (sleep bout duration) Mean Difference (I − J)", "setting": "Lphn3.1 HOM larvae [3]; 10 uM vs HOM - DMSO", "value": -1.0974, "unit": "s"},
      {"measurement": "WakeDuration (wake bout duration) Mean Difference (I − J)", "setting": "Lphn3.1 HOM larvae [3]; 10 uM vs HOM - DMSO", "value": -0.00334, "unit": "s"},
      {"measurement": "Velocity (during sleep) Mean Difference (I − J)", "setting": "Lphn3.1 HOM larvae [3]; 10 uM vs HOM - DMSO", "value": "−.07640* mm/s"},
      {"measurement": "SleepRatio Mean Difference (I − J)", "setting": "Lphn3.1 HOM larvae [3]; 10 uM vs HOM - DMSO", "value": "−0.02153"},
      {"measurement": "SleepFragmentation Mean Difference (I − J)", "setting": "Lphn3.1 HOM larvae [3]; 10 uM vs HOM - DMSO", "value": 5.727},
      {"measurement": "SleepDuration (sleep bout duration) Mean Difference (I − J)", "setting": "Lphn3.1 HOM larvae [3]; 30 uM vs HOM - DMSO", "value": -1.57, "unit": "s"},
      {"measurement": "WakeDuration (wake bout duration) Mean Difference (I − J)", "setting": "Lphn3.1 HOM larvae [3]; 30 uM vs HOM - DMSO", "value": 3.687, "unit": "s"},
      {"measurement": "Velocity (during sleep) Mean Difference (I − J)", "setting": "Lphn3.1 HOM larvae [3]; 30 uM vs HOM - DMSO", "value": "−.05041* mm/s"},
      {"measurement": "SleepRatio Mean Difference (I − J)", "setting": "Lphn3.1 HOM larvae [3]; 30 uM vs HOM - DMSO", "value": "−0.06247"},
      {"measurement": "SleepFragmentation Mean Difference (I − J)", "setting": "Lphn3.1 HOM larvae [3]; 30 uM vs HOM - DMSO", "value": "−1.7339"},
      {"measurement": "comparison of all sleep parameters (summary)", "setting": "Lphn3.1 HOM larvae [3]; 1, 10, 30 μM, FIG. 6A-6D", "value": "only a slight increase in velocity"},
      {"measurement": "sedation in the rotarod assay", "setting": "[4]", "value": "less sedation compared to clonidine and brimonidine"}
    ]}
  ]
}
